{"source": "ChEMBL document CHEMBL4715856", "about": "(Bioorg Med Chem, 2020)", "key": {"[1]": {"assay": "Inhibition of SARS-CoV NSP13 helicase in presence of DT20Cy3 and ReleaseBHQ by FRET-based assay", "set-up": "species or system Severe acute respiratory syndrome-related coronavirus"}, "[2]": {"assay": "Inhibition of His-tagged SARS-CoV HKU39849 3C-like protease expressed in Escherichia coli BL21 assessed as reduction in cleavage activity using H2N-TSAVLQSGFRKW-COOH as substrate preincubated for 30 mins followed by substrate addition by HPLC-based assay", "set-up": "species or system Severe acute respiratory syndrome-related coronavirus"}, "[3]": {"assay": "Inhibition of SARS-CoV(BJ-01) 3C-like protease infected in African green monkey Vero cells assessed as reduction in viral titer incubated for 48 hrs by crystal violet staining based plaque reduction assay", "type": "cell-based", "conditions": "Severe acute respiratory syndrome-related coronavirus, BJ-01, Vero"}, "[4]": {"assay": "Inhibition of SARS-CoV 3C-like protease expressed in Escherichia coli BL21(DE3) using DABCYL-KTSAVLQSGFRKME-EDANS as substrate preincubated for 1 hr followed by substrate addition and measured after 16 hrs by fluorescence method", "set-up": "species or system Severe acute respiratory syndrome-related coronavirus"}, "[5]": {"assay": "Inhibition of SARS-CoV 3C-like protease using abz-SVTLQSG-Tyr(NO2)R as substrate by spectrofluorimetric assay", "set-up": "species or system Severe acute respiratory syndrome-related coronavirus"}, "[6]": {"assay": "Inhibition of SARS-CoV C-terminal 6His-tagged papain-like protease expressed in Escherichia coli BL21(DE3) using ubiquitin-AMC as substrate preincubated for 10 mins followed by substrate addition by luminescence spectrometric method", "set-up": "species or system Severe acute respiratory syndrome-related coronavirus"}, "[7]": {"assay": "Inhibition of MERS-CoV 3C-like protease", "set-up": "species or system Middle East respiratory syndrome-related coronavirus"}, "[8]": {"assay": "Inhibition of SARS-CoV2 3C-like protease (3264 to 3569 residues) expressed in Escherichia coli BL21(DE3) BL21-Gold using Dabcyl-KTSAVLQSGFRKM-E(Edans)-NH2 as substrate preincubated for 10 min followed by substrate addition by FRET assay", "set-up": "species or system Severe acute respiratory syndrome coronavirus 2"}, "[9]": {"assay": "Inhibition of SARS-CoV 3C-like protease by FRET assay", "set-up": "species or system Severe acute respiratory syndrome-related coronavirus"}, "[10]": {"assay": "Inhibition of SARS-CoV nucleocapsid protein expressed in Escherichia coli BL21 (DE3) incubated for 1 hr by quantum dots-conjugated oligonucleotide biochip-platform based confocal laser scanning microscopic analysis", "set-up": "species or system Severe acute respiratory syndrome-related coronavirus"}, "[11]": {"assay": "(§1) Inhibition of SARS-CoV spike protein expressed in Escherichia coli BL21(DE3)pLysS/human ACE2 using 2,2'-azinobis(3-ethylbenzthiazoline-sulfonic acid) preincubated for 2 hrs with biotinylated S protein followed by incubation with ACE2 for 1 hr and subsequent substrate addition by competitive biotinylated ELISA"}, "[12]": {"assay": "as §1, with “acid) at 10 nmol” for “acid)”, “ELISA relative to control” for “ELISA”", "conditions": "time 3.0 hrs"}, "[13]": {"assay": "Inhibition of SARS-CoV N-terminal His-tagged 3C-like protease expressed in Escherichia coli GJ1158 using 2-aminobenzoyl-SVTLQSG-Tyr(NO2)-R as substrate by quenched-FRET assay", "set-up": "species or system Severe acute respiratory syndrome-related coronavirus"}, "[14]": {"assay": "Inhibition of MERS-CoV NSP13 helicase measured after 5 min by FRET-based assay", "set-up": "species or system Middle East respiratory syndrome-related coronavirus"}, "[15]": {"assay": "Inhibition of SARS-CoV C-terminal (GPH6 residues)-fused wild type 3C-like protease expressed in Escherichia coli BL21(DE3) cells using MCA-AVLQSGFR-Lys(Dnp)-Lys-NH2 s substrate by fluorescence method", "set-up": "species or system Severe acute respiratory syndrome-related coronavirus"}, "[16]": {"assay": "Inhibition of 3C-like protease in SARS-CoV2 infected in African green monkey vero cells assessed as antiviral activity incubated for 1 hr by crystal violet staining based plaque reduction assay", "type": "cell-based", "conditions": "Severe acute respiratory syndrome coronavirus 2, Vero"}, "[17]": {"assay": "Inhibition of HcoV-EMC 3C-like protease", "set-up": "species or system unidentified human coronavirus"}, "[18]": {"assay": "Inhibition of SARS-CoV wild type 3C-like protease using MCA-AVLQSGFR-Lys(Dnp)-Lys-NH2 s substrate by fluorescence method", "set-up": "species or system Severe acute respiratory syndrome-related coronavirus"}, "[19]": {"assay": "Inhibition of SARS-CoV papain-like protease using Ub-7-amino-4-trifluoro-methylcoumarin as substrate incubated for 3 mins by fluorescence method", "set-up": "species or system Severe acute respiratory syndrome-related coronavirus"}, "[20]": {"assay": "Inhibition of MERS-CoV papain-like protease using Ub-7-amino-4-trifluoro-methylcoumarin as substrate incubated for 3 mins by fluorescence method", "set-up": "species or system Middle East respiratory syndrome-related coronavirus"}, "[21]": {"assay": "Inhibition of SARS-CoV 3C-like protease (9970 to 10887 residues) expressed in Escherichia coli BL21(DE3) CodonPlus-RIL cells using DABCYL-KTSAVLQSGFRKME-EDANS as substrate by FRET assay", "set-up": "species or system Severe acute respiratory syndrome-related coronavirus"}, "[22]": {"assay": "Inhibition of SARS-CoV papain-like protease (723 to 1041 residues) expressed in Escherichia coli BL21(DE3) using Arg-Leu-Arg-Gly-Gly-AMC as substrate by fluorescence method", "set-up": "species or system Severe acute respiratory syndrome-related coronavirus"}, "[23]": {"assay": "Inhibition of SARS-CoV wild type NSP13 helicase using Cy3-labeled 31/18-mer as substrate measured after 10 min by FRET-based assay", "set-up": "species or system Severe acute respiratory syndrome-related coronavirus"}, "[24]": {"assay": "Inhibition of SARS-CoV NSP13 helicase using fluorescein and black hole quencher labelled dsDNA as substrate measured after 10 min by FRET-based assay", "set-up": "species or system Severe acute respiratory syndrome-related coronavirus"}, "[25]": {"system": "guanine-N7 methyltransferase (human versus SARS-CoV)", "assay": "in vitro"}, "[26]": {"target": "T1, mRNA cap guanine-N(7) methyltransferase (Homo sapiens, UniProt O43148)", "T1 sequence (O43148 whole entry)": "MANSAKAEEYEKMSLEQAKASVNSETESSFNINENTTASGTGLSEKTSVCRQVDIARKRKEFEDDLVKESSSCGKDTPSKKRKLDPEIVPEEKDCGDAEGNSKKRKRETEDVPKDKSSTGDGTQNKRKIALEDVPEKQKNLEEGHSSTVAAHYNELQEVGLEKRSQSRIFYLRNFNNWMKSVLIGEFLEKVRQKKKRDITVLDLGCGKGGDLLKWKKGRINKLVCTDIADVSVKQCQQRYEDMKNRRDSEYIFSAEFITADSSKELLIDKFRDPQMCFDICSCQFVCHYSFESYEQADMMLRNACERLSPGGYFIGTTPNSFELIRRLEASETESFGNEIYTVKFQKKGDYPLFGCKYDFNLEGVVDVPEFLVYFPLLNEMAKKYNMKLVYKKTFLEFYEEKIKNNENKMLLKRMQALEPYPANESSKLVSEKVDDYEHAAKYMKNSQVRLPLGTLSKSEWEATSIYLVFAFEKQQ"}, "[27]": {"system": "guanine-N7 methyltransferase (human versus SARS coronavirus WHU)", "assay": "in vitro"}, "[28]": {"target": "T1, mRNA cap guanine-N(7) methyltransferase", "remark": "listed apart in the source"}, "[29]": {"assay": "Inhibition of envelope protein in HCoV-229E infected in human MRC-5 cells assessed as reduction in viral replication incubated for 6 days by crystal violet staining based plaque reduction assay", "type": "cell-based", "conditions": "Human coronavirus 229E, MRC5, 144 h"}, "[30]": {"assay": "Inhibition of envelope protein in Murine hepatitis virus A59 infected in mouse L929 cells assessed as reduction in viral replication incubated for 24 hrs by crystal violet staining based plaque reduction assay", "type": "cell-based", "conditions": "Murine coronavirus, A59, L929, 24 h"}, "[31]": {"assay": "Inhibition of SARS-CoV 3C-like protease expressed in Escherichia coli BL21(DE3) using Dabcyl-KTSAVLQSGFRKME-Edans as substrate by fluorometric assay", "set-up": "species or system Severe acute respiratory syndrome-related coronavirus"}, "[32]": {"assay": "Inhibition of MERS-CoV (KOR/KNIH/002_05_2015) 3C-like protease expressed in Escherichia coli BL21(DE3) using Dabcyl-KTSAVLQSGFRKME-Edans as substrate by fluorometric assay", "set-up": "species or system Middle East respiratory syndrome-related coronavirus"}}, "data": [{"compound": "Cc1ncc(CO)c(C23OC4(O)CC(O)(CC(O)(C4)O2)O3)c1O", "values": [{"measurement": "IC50", "setting": "[1]", "result": 3, "unit": "µM"}]}, {"compound": "CC1=C(C(=O)OCCc2ccccc2)C(c2ccccc2[N+](=O)[O-])C2=C(CCCC2=O)N1", "note": "(stereo not drawn)", "values": [{"measurement": "IC50", "setting": "[2]", "result": 2.5, "unit": "µM"}, {"measurement": "IC50", "setting": "[3]", "result": 8.9, "unit": "µM"}]}, {"compound": "C[C@@H]1O[C@@H](O[C@H]2[C@@H](Oc3cc(O)c4c(=O)cc(-c5ccc(O)cc5)oc4c3)O[C@H](CO)[C@@H](O)[C@@H]2O)[C@H](O)[C@H](O)[C@H]1O", "values": [{"measurement": "IC50", "setting": "[4]", "result": 27.5, "unit": "µM"}]}, {"compound": "O=C(Cc1cncc(Br)c1)c1ccc(-c2ccc(Cl)cc2)o1", "values": [{"measurement": "IC50", "setting": "[5]", "result": 13, "unit": "µM"}]}, {"compound": "Nc1nc2[nH]cnc2c(=S)[nH]1", "note": "[THIOGUANINE]", "values": [{"measurement": "IC50", "setting": "[6]", "result": 5, "unit": "µM"}]}, {"compound": "CC(C)(C)OC(=O)Nc1cccn([C@@H](CC2CC2)C(=O)N[C@@H](C[C@@H]2CCCC2=O)C(=O)C(=O)NCc2ccccc2)c1=O", "values": [{"measurement": "IC50", "setting": "[7]", "result": 0.58, "unit": "µM"}, {"measurement": "IC50", "setting": "[8]", "result": 0.67, "unit": "µM"}, {"measurement": "IC50", "setting": "[9]", "result": 0.9, "unit": "µM"}]}, {"compound": "O=C(O[C@@H]1Cc2c(O)cc(O)cc2O[C@H]1c1cc(O)c(O)c(O)c1)c1cc(O)c(O)c(O)c1", "note": "[GALLOCATECHIN GALLATE]", "values": [{"measurement": "IC50", "setting": "[10]", "result": 5, "unit": "ng/mL"}]}, {"compound": "H-SQKSIVAYTM-NH2", "values": [{"measurement": "IC50", "setting": "[11]", "result": 0.0018, "unit": "µM"}, {"measurement": "inhibition", "setting": "[12]", "result": 90, "unit": "%"}]}, {"compound": "O=C(Oc1cncc(Cl)c1)c1cccs1", "values": [{"measurement": "IC50", "setting": "[13]", "result": 0.5, "unit": "µM"}]}, {"compound": "O=C(O[C@@H]1Cc2c(O)cc(O)cc2O[C@H]1c1ccc(O)c(O)c1)c1cc(O)c(O)c(O)c1", "note": "[(-)-CATECHINGALLATE]", "values": [{"measurement": "IC50", "setting": "[10]", "result": 5, "unit": "ng/mL"}]}, {"compound": "Sc1nnc(NNc2ccc(I)cc2)n1NC1C=CCC1", "note": "(stereo not drawn)", "values": [{"measurement": "IC50", "setting": "[14]", "result": 2.5, "unit": "µM"}]}, {"compound": "Cc1cc(C(=O)N[C@@H](C)C(=O)N[C@H](C(=O)N[C@@H](CC(C)C)C(=O)N[C@H](/C=C/C(=O)OCc2ccccc2)C[C@@H]2CCNC2=O)C(C)C)no1", "values": [{"measurement": "Ki", "setting": "[15]", "result": 2.3, "unit": "µM"}, {"measurement": "EC50", "setting": "[16]", "result": 16.8, "unit": "µM"}, {"measurement": "IC50", "setting": "[17]", "result": 0.28, "unit": "µM"}, {"measurement": "Ki", "setting": "[18]", "result": 1.9, "unit": "µM"}]}, {"compound": "CCN(CC)C(=S)SSC(=S)N(CC)CC", "values": [{"measurement": "IC50", "setting": "[19]", "result": 14.2, "unit": "µM"}, {"measurement": "IC50", "setting": "[20]", "result": 22.7, "unit": "µM"}]}, {"compound": "C=C(C)C(Cc1c(OC)ccc(C(=O)/C=C/c2ccc(O)cc2)c1O)C(=O)O", "note": "(stereo not drawn)", "values": [{"measurement": "IC50", "setting": "[21]", "result": 11.4, "unit": "µM"}, {"measurement": "IC50", "setting": "[22]", "result": 1.2, "unit": "µM"}]}, {"compound": "C=CCn1c(S)nnc1CSc1ccccc1[N+](=O)[O-]", "values": [{"measurement": "IC50", "setting": "[23]", "result": 5.9, "unit": "µM"}, {"measurement": "IC50", "setting": "[24]", "result": 6, "unit": "µM"}]}, {"compound": "Nc1ncnc2c1ncn2[C@@H]1O[C@H](C[C@@H](N)CC[C@H](N)C(=O)O)[C@@H](O)[C@H]1O", "note": "[SINEFUNGIN]", "values": [{"measurement": "selectivity ratio", "setting": "[25]", "result": "< 2.63"}, {"measurement": "IC50", "setting": "[26]", "result": "< 0.05", "unit": "µM"}, {"measurement": "selectivity ratio", "setting": "[27]", "result": 0.32}, {"measurement": "IC50", "setting": "[28]", "result": 0.00055, "unit": "µM"}]}, {"compound": "N=C(N)NC(=O)c1nc(Cl)c(N2CCCCCC2)nc1N", "note": "[N,N-HEXAMETHYLENEAMILORIDE]", "values": [{"measurement": "EC50", "setting": "[29]", "result": 1.34, "unit": "µM"}, {"measurement": "EC50", "setting": "[30]", "result": 3.91, "unit": "µM"}]}, {"compound": "O=C[C@H](C[C@@H]1CCNC1=O)NC(=O)[C@H](Cc1ccccc1)NC(=O)/C=C/c1ccc(Cl)cc1F", "values": [{"measurement": "IC50", "setting": "[31]", "result": 0.2, "unit": "µM"}, {"measurement": "IC50", "setting": "[32]", "result": 1.7, "unit": "µM"}]}]}
